Experimental data reported in US20230085307A1, “PYRIDAZINONE COMPOUND AND HERBICIDE” (NISSAN CHEMICAL CORPORATION, priority 2019, published 2023).

Legend:
[1] = test system: redroot pigweed; assay: Test Example 5: herbicidal effect by foliage application, plastic box (Table 20, symbol N); assay type: in vivo, redroot pigweed (Amaranthus retroflexus); settings: foliage application, three weeks after application
Method in brief: (§1)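 Post-emergence foliar test in sterilized diluvial soil. Compound applied as water-diluted emulsion at a predetermined rate to 14-day-old plants; evaluation at three weeks.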

[2] = test system: persian speedwell; assay: Test Example 4: herbicidal effect by soil treatment (Table 19, symbol R); assay type: in vivo, Persian speedwell (Veronica persica)
Method in brief: (§2)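 Scoring uses the grading scale of an earlier test, three weeks post-application. Treatment consists of spraying a diluted emulsion formulation across the surface of sterilized diluvial soil in which seeds are buried near 1.5 cm deep; boxes are kept in a greenhouse between 25° C. and 30° C.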

[3] = test system: barnyard grass; assay: Test Example 4: herbicidal effect by soil treatment (Table 19, symbol H); assay type: in vivo, barnyard grass (Echinochloa crus-galli)
Method in brief: as §2

[4] = test system: velvetleaf; assay: Test Example 5: herbicidal effect by foliage application, plastic box (Table 20, symbol M); assay type: in vivo, velvetleaf (Abutilon theophrasti); settings: foliage application, three weeks after application
Method in brief: as §1

[5] = test system: lambsquarters; assay: Test Example 5: herbicidal effect by foliage application, plastic box (Table 20, symbol O); assay type: in vivo, lambsquarters (Chenopodium album); settings: foliage application, three weeks after application
Method in brief: as §1

[6] = test system: windgrass; assay: Test Example 5: herbicidal effect by foliage application, plastic box (Table 20, symbol L); assay type: in vivo, windgrass (Apera spica-venti); settings: foliage application, three weeks after application
Method in brief: as §1

[7] = test system: windgrass; assay: Test Example 4: herbicidal effect by soil treatment (Table 19, symbol L); assay type: in vivo, windgrass (Apera spica-venti)
Method in brief: as §2

[8] = test system: wild oat; assay: Test Example 5: herbicidal effect by foliage application, plastic box (Table 20, symbol I); assay type: in vivo, wild oat (Avena fatua); settings: foliage application, three weeks after application
Method in brief: as §1

[9] = test system: persian speedwell; assay: Test Example 5: herbicidal effect by foliage application, plastic box (Table 20, symbol R); assay type: in vivo, Persian speedwell (Veronica persica); settings: foliage application, three weeks after application
Method in brief: as §1

[10] = test system: velvetleaf; assay: Test Example 4: herbicidal effect by soil treatment (Table 19, symbol M); assay type: in vivo, velvetleaf (Abutilon theophrasti)
Method in brief: as §2

[11] = test system: blackgrass; assay: Test Example 4: herbicidal effect by soil treatment (Table 19, symbol J); assay type: in vivo, blackgrass (Alopecurus myosuroides)
Method in brief: as §2

[12] = test system: chickweed; assay: Test Example 5: herbicidal effect by foliage application, plastic box (Table 20, symbol P); assay type: in vivo, common chickweed (Stellaria media); settings: foliage application, three weeks after application
Method in brief: as §1

[13] = test system: redroot pigweed; assay: Test Example 4: herbicidal effect by soil treatment (Table 19, symbol N); assay type: in vivo, redroot pigweed (Amaranthus retroflexus)
Method in brief: as §2

[14] = test system: Italian ryegrass; assay: Test Example 5: herbicidal effect by foliage application, plastic box (Table 20, symbol K); assay type: in vivo, Italian ryegrass (Lolium multiflorum); settings: foliage application, three weeks after application
Method in brief: as §1

[15] = test system: chickweed; assay: Test Example 4: herbicidal effect by soil treatment (Table 19, symbol P); assay type: in vivo, common chickweed (Stellaria media)
Method in brief: as §2

[16] = test system: lambsquarters; assay: Test Example 4: herbicidal effect by soil treatment (Table 19, symbol O); assay type: in vivo, lambsquarters (Chenopodium album)
Method in brief: as §2

[17] = test system: green foxtail; assay: Test Example 5: herbicidal effect by foliage application, plastic box (Table 20, symbol G); assay type: in vivo, green foxtail (Setaria viridis); settings: foliage application, three weeks after application
Method in brief: as §1

[18] = test system: southern crabgrass; assay: Test Example 5: herbicidal effect by foliage application, plastic box (Table 20, symbol F); assay type: in vivo, southern crabgrass (Digitaria ciliaris); settings: foliage application, three weeks after application
Method in brief: as §1

[19] = test system: barnyard grass; assay: Test Example 5: herbicidal effect by foliage application, plastic box (Table 20, symbol H); assay type: in vivo, barnyard grass (Echinochloa crus-galli); settings: foliage application, three weeks after application
Method in brief: as §1

[20] = test system: southern crabgrass; assay: Test Example 4: herbicidal effect by soil treatment (Table 19, symbol F); assay type: in vivo, southern crabgrass (Digitaria ciliaris)
Method in brief: as §2

[21] = test system: wild oat; assay: Test Example 4: herbicidal effect by soil treatment (Table 19, symbol I); assay type: in vivo, wild oat (Avena fatua)
Method in brief: as §2

[22] = test system: green foxtail; assay: Test Example 4: herbicidal effect by soil treatment (Table 19, symbol G); assay type: in vivo, green foxtail (Setaria viridis)
Method in brief: as §2

[23] = test system: Italian ryegrass; assay: Test Example 4: herbicidal effect by soil treatment (Table 19, symbol K); assay type: in vivo, Italian ryegrass (Lolium multiflorum)
Method in brief: as §2

[24] = test system: blackgrass; assay: Test Example 5: herbicidal effect by foliage application, plastic box (Table 20, symbol J); assay type: in vivo, blackgrass (Alopecurus myosuroides); settings: foliage application, three weeks after application
Method in brief: as §1

Cc1nn(C)c(=O)c(-c2c(-c3ccc(OS(=O)(=O)C(F)(F)F)cc3)sc3ccccc23)c1O [1-147]
N: redroot pigweed, herbicidal effect ([1]; AAH 320 g/ha): 0 (Herbicidal rate of 5% or less (almost no effect))
R: persian speedwell, herbicidal effect rating ([2]; AAH 320 g/ha): 5 (Herbicidal rate of 90% or more (almost completely withered))
H: barnyard grass, herbicidal effect rating ([3]; AAH 320 g/ha): 0 (Herbicidal rate of 5% or less (almost no effect))
M: velvetleaf, herbicidal effect ([4]; AAH 320 g/ha): 1 (Herbicidal rate of 5% or more and less than 20%)
O: lambsquarters, herbicidal effect ([5]; AAH 320 g/ha): 2 (Herbicidal rate of 20% or more and less than 40%)
L: windgrass, herbicidal effect ([6]; AAH 320 g/ha): 0 (Herbicidal rate of 5% or less (almost no effect))
L: windgrass, herbicidal effect rating ([7]; AAH 320 g/ha): 0 (Herbicidal rate of 5% or less (almost no effect))
I: wild oat, herbicidal effect ([8]; AAH 320 g/ha): 0 (Herbicidal rate of 5% or less (almost no effect))
R: persian speedwell, herbicidal effect ([9]; AAH 320 g/ha): 5 (Herbicidal rate of 90% or more (almost completely withered))
M: velvetleaf, herbicidal effect rating ([10]; AAH 320 g/ha): 0 (Herbicidal rate of 5% or less (almost no effect))
J: blackgrass, herbicidal effect rating ([11]; AAH 320 g/ha): 0 (Herbicidal rate of 5% or less (almost no effect))
P: chickweed, herbicidal effect ([12]; AAH 320 g/ha): 5 (Herbicidal rate of 90% or more (almost completely withered))
N: redroot pigweed, herbicidal effect rating ([13]; AAH 320 g/ha): 2 (Herbicidal rate of 20% or more and less than 40%)
K: Italian ryegrass, herbicidal effect ([14]; AAH 320 g/ha): 0 (Herbicidal rate of 5% or less (almost no effect))
P: chickweed, herbicidal effect rating ([15]; AAH 320 g/ha): 5 (Herbicidal rate of 90% or more (almost completely withered))
O: lambsquarters, herbicidal effect rating ([16]; AAH 320 g/ha): 3 (Herbicidal rate of 40% or more and less than 70%)
G: green foxtail, herbicidal effect ([17]; AAH 320 g/ha): 0 (Herbicidal rate of 5% or less (almost no effect))
F: southern crabgrass, herbicidal effect ([18]; AAH 320 g/ha): 0 (Herbicidal rate of 5% or less (almost no effect))
H: barnyard grass, herbicidal effect ([19]; AAH 320 g/ha): 0 (Herbicidal rate of 5% or less (almost no effect))
F: southern crabgrass, herbicidal effect rating ([20]; AAH 320 g/ha): 0 (Herbicidal rate of 5% or less (almost no effect))
I: wild oat, herbicidal effect rating ([21]; AAH 320 g/ha): 0 (Herbicidal rate of 5% or less (almost no effect))
G: green foxtail, herbicidal effect rating ([22]; AAH 320 g/ha): 0 (Herbicidal rate of 5% or less (almost no effect))
K: Italian ryegrass, herbicidal effect rating ([23]; AAH 320 g/ha): 0 (Herbicidal rate of 5% or less (almost no effect))
J: blackgrass, herbicidal effect ([24]; AAH 320 g/ha): 0 (Herbicidal rate of 5% or less (almost no effect))

CCCC(=O)Oc1c(OC)nn(C)c(=O)c1-c1c(-c2ccc(OC)cc2OC)sc2ccccc12 [1-181]
N: redroot pigweed, herbicidal effect ([1]; AAH 320 g/ha): 0 (Herbicidal rate of 5% or less (almost no effect))
R: persian speedwell, herbicidal effect rating ([2]; AAH 320 g/ha): 1 (Herbicidal rate of 5% or more and less than 20%)
H: barnyard grass, herbicidal effect rating ([3]; AAH 320 g/ha): 0 (Herbicidal rate of 5% or less (almost no effect))
M: velvetleaf, herbicidal effect ([4]; AAH 320 g/ha): 0 (Herbicidal rate of 5% or less (almost no effect))
O: lambsquarters, herbicidal effect ([5]; AAH 320 g/ha): 1 (Herbicidal rate of 5% or more and less than 20%)
L: windgrass, herbicidal effect ([6]; AAH 320 g/ha): 0 (Herbicidal rate of 5% or less (almost no effect))
L: windgrass, herbicidal effect rating ([7]; AAH 320 g/ha): 0 (Herbicidal rate of 5% or less (almost no effect))
I: wild oat, herbicidal effect ([8]; AAH 320 g/ha): 0 (Herbicidal rate of 5% or less (almost no effect))
R: persian speedwell, herbicidal effect ([9]; AAH 320 g/ha): 1 (Herbicidal rate of 5% or more and less than 20%)
M: velvetleaf, herbicidal effect rating ([10]; AAH 320 g/ha): 0 (Herbicidal rate of 5% or less (almost no effect))
J: blackgrass, herbicidal effect rating ([11]; AAH 320 g/ha): 0 (Herbicidal rate of 5% or less (almost no effect))
P: chickweed, herbicidal effect ([12]; AAH 320 g/ha): 4 (Herbicidal rate of 70% or more and less than 90%)
N: redroot pigweed, herbicidal effect rating ([13]; AAH 320 g/ha): 0 (Herbicidal rate of 5% or less (almost no effect))
K: Italian ryegrass, herbicidal effect ([14]; AAH 320 g/ha): 0 (Herbicidal rate of 5% or less (almost no effect))
P: chickweed, herbicidal effect rating ([15]; AAH 320 g/ha): 1 (Herbicidal rate of 5% or more and less than 20%)
O: lambsquarters, herbicidal effect rating ([16]; AAH 320 g/ha): 0 (Herbicidal rate of 5% or less (almost no effect))
G: green foxtail, herbicidal effect ([17]; AAH 320 g/ha): 0 (Herbicidal rate of 5% or less (almost no effect))
F: southern crabgrass, herbicidal effect ([18]; AAH 320 g/ha): 0 (Herbicidal rate of 5% or less (almost no effect))
H: barnyard grass, herbicidal effect ([19]; AAH 320 g/ha): 0 (Herbicidal rate of 5% or less (almost no effect))
F: southern crabgrass, herbicidal effect rating ([20]; AAH 320 g/ha): 0 (Herbicidal rate of 5% or less (almost no effect))
I: wild oat, herbicidal effect rating ([21]; AAH 320 g/ha): 0 (Herbicidal rate of 5% or less (almost no effect))
G: green foxtail, herbicidal effect rating ([22]; AAH 320 g/ha): 0 (Herbicidal rate of 5% or less (almost no effect))
K: Italian ryegrass, herbicidal effect rating ([23]; AAH 320 g/ha): 0 (Herbicidal rate of 5% or less (almost no effect))
J: blackgrass, herbicidal effect ([24]; AAH 320 g/ha): 0 (Herbicidal rate of 5% or less (almost no effect))

COc1nn(C)c(=O)c(-c2c(-c3cc(F)c(F)c(F)c3)sc3ccccc23)c1O [1-186]
N: redroot pigweed, herbicidal effect ([1]; AAH 283 g/ha): 4 (Herbicidal rate of 70% or more and less than 90%)
R: persian speedwell, herbicidal effect rating ([2]; AAH 283 g/ha): 4 (Herbicidal rate of 70% or more and less than 90%)
H: barnyard grass, herbicidal effect rating ([3]; AAH 283 g/ha): 0 (Herbicidal rate of 5% or less (almost no effect))
M: velvetleaf, herbicidal effect ([4]; AAH 283 g/ha): 3 (Herbicidal rate of 40% or more and less than 70%)
O: lambsquarters, herbicidal effect ([5]; AAH 283 g/ha): 2 (Herbicidal rate of 20% or more and less than 40%)
L: windgrass, herbicidal effect ([6]; AAH 283 g/ha): 0 (Herbicidal rate of 5% or less (almost no effect))
L: windgrass, herbicidal effect rating ([7]; AAH 283 g/ha): 0 (Herbicidal rate of 5% or less (almost no effect))
I: wild oat, herbicidal effect ([8]; AAH 283 g/ha): 0 (Herbicidal rate of 5% or less (almost no effect))
R: persian speedwell, herbicidal effect ([9]; AAH 283 g/ha): 5 (Herbicidal rate of 90% or more (almost completely withered))
M: velvetleaf, herbicidal effect rating ([10]; AAH 283 g/ha): 0 (Herbicidal rate of 5% or less (almost no effect))
J: blackgrass, herbicidal effect rating ([11]; AAH 283 g/ha): 0 (Herbicidal rate of 5% or less (almost no effect))
P: chickweed, herbicidal effect ([12]; AAH 283 g/ha): 5 (Herbicidal rate of 90% or more (almost completely withered))
N: redroot pigweed, herbicidal effect rating ([13]; AAH 283 g/ha): 2 (Herbicidal rate of 20% or more and less than 40%)
K: Italian ryegrass, herbicidal effect ([14]; AAH 283 g/ha): 0 (Herbicidal rate of 5% or less (almost no effect))
P: chickweed, herbicidal effect rating ([15]; AAH 283 g/ha): 5 (Herbicidal rate of 90% or more (almost completely withered))
O: lambsquarters, herbicidal effect rating ([16]; AAH 283 g/ha): 0 (Herbicidal rate of 5% or less (almost no effect))
G: green foxtail, herbicidal effect ([17]; AAH 283 g/ha): 0 (Herbicidal rate of 5% or less (almost no effect))
F: southern crabgrass, herbicidal effect ([18]; AAH 283 g/ha): 0 (Herbicidal rate of 5% or less (almost no effect))
H: barnyard grass, herbicidal effect ([19]; AAH 283 g/ha): 0 (Herbicidal rate of 5% or less (almost no effect))
F: southern crabgrass, herbicidal effect rating ([20]; AAH 283 g/ha): 0 (Herbicidal rate of 5% or less (almost no effect))
I: wild oat, herbicidal effect rating ([21]; AAH 283 g/ha): 0 (Herbicidal rate of 5% or less (almost no effect))
G: green foxtail, herbicidal effect rating ([22]; AAH 283 g/ha): 0 (Herbicidal rate of 5% or less (almost no effect))
K: Italian ryegrass, herbicidal effect rating ([23]; AAH 283 g/ha): 0 (Herbicidal rate of 5% or less (almost no effect))
J: blackgrass, herbicidal effect ([24]; AAH 283 g/ha): 0 (Herbicidal rate of 5% or less (almost no effect))
